Results on 21 compounds are retold here after ChEMBL document CHEMBL1137315, “7-Aroyl-aminoindoline-1-sulfonamides as a novel class of potent antitubulin agents” (J Med Chem, 2006).

Experiment [1] concerns KB. The experiment can be described thus: Cytotoxicity against KB-VIN 10 cell line by methylene blue dye assay. It counts as functional, cell-based. Conditions: Homo sapiens.
A further experiment deals with TSGH 9201. In words: Cytotoxicity against human TSGH cell line by methylene blue dye assay. It is filed as functional, cell-based.
Experiment [2] deals with T1, Tubulin (Homo sapiens) (UniProt P68371+Q9H4B7+P0DPH7+P68366+Q13509+Q71U36+P04350+Q3ZCM7+P07437+P68363+Q9BQE3+Q6PEY2+Q13885+Q9BVA1+Q9BUF5). In words: Inhibition of [3H]colchicine binding to tubulin at 5 uM. It counts as protein-complex assay.
A further experiment concerns MKN-45. The experiment can be described thus: Cytotoxicity against human MKN45 cell line by methylene blue dye assay. It is filed as functional, cell-based.
A further experiment deals with Tubulin. The experiment can be described thus: Inhibition of tubulin polymerization. It counts as functional, Homo sapiens.
In the next experiment the test system is HT-29. In words: Cytotoxicity against human HT29 cell line by methylene blue dye assay. It counts as functional, cell-based.
Experiment [3] deals with KB. The experiment can be described thus: Cytotoxicity against human KB cell line by methylene blue dye assay. It counts as functional, cell-based.
The subject of another experiment is NCI-H460. The experiment can be described thus: Cytotoxicity against human H460 cell line by methylene blue dye assay. It is filed as functional, cell-based.
For experiment [4], the target named is T1, Tubulin (Homo sapiens). In words: Inhibition of [3H]colchicine binding to tubulin at 1 uM. It counts as protein-complex assay.

On to `COc1ccc(S(=O)(=O)N2CCc3cccc(NC(=O)c4ccco4)c32)cc1`, for which the IC50 (as a rule, the concentration at which inhibition is half-maximal) in the experiment on KB [1] came out at 9.2 nM; in the experiment with TSGH 9201, 11.1 nM; in the experiment with MKN-45, 10.7 nM; at Tubulin, 1200 nM; in the experiment on HT-29, 9.5 nM; in the experiment with KB [3] it was 9.6 nM. In the experiment with NCI-H460, this compound yielded an IC50 of 9.8 nM. The inhibition – broadly, the change of the read-out against control, counted positive when it falls – at Tubulin (Homo sapiens) [2] was found to be 95%; on Tubulin (Homo sapiens) [4] it was 74%.
In the case of `COc1ccc(S(=O)(=O)N2CCc3cccc(NS(=O)(=O)c4ccc(F)cc4)c32)cc1`, the IC50 is 890 nM in the experiment on MKN-45 and 1200 nM in the experiment on KB [3].
With `COc1ccc(S(=O)(=O)N2CCc3cc(Br)cc(NC(=O)c4ccco4)c32)cc1`, the IC50 in the experiment with MKN-45 came to 78 nM; in the experiment with KB [3] it was 89 nM.
The corresponding values for `COc1ccc(S(=O)(=O)N2CCc3cccc(NC(=O)N(C)c4ccccc4)c32)cc1` are above 10000 nM and above 10000 nM.
`COc1ccc(S(=O)(=O)N2CCc3cccc(NC(=O)c4ccccc4)c32)cc1`: the IC50 in the experiment on KB [1] is 180 nM; with TSGH 9201, 201 nM; with MKN-45 it was 250 nM; in the experiment on HT-29, 192 nM; with KB [3], 297 nM; with NCI-H460, 257 nM.
Regarding `COc1ccc(S(=O)(=O)N2CCc3cccc(NS(=O)(=O)c4ccc([N+](=O)[O-])cc4)c32)cc1`, the IC50 in the experiment with MKN-45 was determined as 933 nM; with KB [3], 1100 nM.
The matching figures for `COc1ccc(S(=O)(=O)N2CCc3cc(Br)cc(NC(=O)c4ccncc4)c32)cc1`: 86 nM and 91 nM.
In the case of `COc1ccc(S(=O)(=O)N2CCc3cccc(NC(=O)c4ccncc4)c32)cc1`, the IC50 in the experiment on KB [1] was 8.9 nM; with TSGH 9201, 10.8 nM; in the experiment with MKN-45, 8.8 nM; at Tubulin, 1100 nM; in the experiment with HT-29, 8.6 nM; with KB [3], 9.6 nM. In the experiment with NCI-H460, this compound came in with an IC50 of 9.4 nM. In addition, the inhibition on Tubulin (Homo sapiens) [2] is 96%; at Tubulin (Homo sapiens) [4], 78%.
Regarding `COc1ccc(S(=O)(=O)N2CCc3cccc(NC(=O)c4ccc([N+](=O)[O-])cc4)c32)cc1`, the IC50 with KB [1] came to 95 nM; in the experiment with TSGH 9201 it was 116 nM; in the experiment on MKN-45, 95 nM; against Tubulin it was 1900 nM; with HT-29 it was 65 nM; with KB [3], 102 nM. In addition, half-maximal inhibition with NCI-H460 (IC50) was put at 122 nM. The inhibition is 91% on Tubulin (Homo sapiens) [2] and 62% at Tubulin (Homo sapiens) [4].
As for `COc1ccc(S(=O)(=O)N2CCc3cccc(NC(=O)C(C)(C)C)c32)cc1`, the IC50 amounted to 289 nM with MKN-45 and 359 nM with KB [3].
The matching figures for `COc1ccc(S(=O)(=O)N2CCc3cccc(NC(=O)Oc4ccccc4)c32)cc1`: above 10000 nM and above 10000 nM.
The corresponding values for `COC(=O)c1ccc(C(=O)Nc2cccc3c2N(S(=O)(=O)c2ccc(OC)cc2)CC3)cc1` are 312 nM and 376 nM.
With `COc1ccc(S(=O)(=O)N2CCc3cccc(NC(=O)c4cccs4)c32)cc1`, the IC50 in the experiment on KB [1] was determined as 43 nM; in the experiment with TSGH 9201, 54 nM; in the experiment with MKN-45, 31 nM; at Tubulin, 1700 nM; with HT-29 it was 37 nM; in the experiment on KB [3], 47 nM. In addition, the IC50 in the experiment on NCI-H460 was found to be 49 nM. The inhibition on Tubulin (Homo sapiens) [2] worked out at 94%; on Tubulin (Homo sapiens) [4], 75%.
As to `COc1ccc(S(=O)(=O)N2CCc3cccc(NC(=O)c4ccc(F)cc4)c32)cc1`, the IC50 with KB [1] worked out at 85 nM; in the experiment on TSGH 9201 it was 100 nM; with MKN-45 it was 45 nM; at Tubulin, 1500 nM; with HT-29, 55 nM; with KB [3], 93 nM. For the same compound, in the experiment with NCI-H460, 95 nM corresponded to half-maximal inhibition (IC50). In addition, the inhibition on Tubulin (Homo sapiens) [2] turned out to be 93%; at Tubulin (Homo sapiens) [4], 65%.
On to `COc1ccc(S(=O)(=O)N2CCc3cccc(NC(=O)c4ccc(C#N)cc4)c32)cc1`, for which the values for the IC50 in the experiment with MKN-45 and in the experiment with KB [3] were 89 nM and 105 nM, respectively.
On to `COc1ccc(S(=O)(=O)N2CCc3cccc(NCc4ccccc4)c32)cc1`, for which the IC50 with KB [1] is above 10000 nM; in the experiment on TSGH 9201, above 10000 nM; in the experiment with MKN-45, above 10000 nM; against Tubulin, above 5000 nM; in the experiment on HT-29, above 10000 nM; in the experiment on KB [3] it was above 10000 nM. Also, the IC50 in the experiment on NCI-H460 was above 10000 nM.
For `COc1ccc(S(=O)(=O)N2CCc3cccc(N)c32)cc1`, the figures for the IC50 with MKN-45 and in the experiment with KB [3] were 1200 nM and 2800 nM, respectively.
`COc1ccc(S(=O)(=O)N2CCc3cccc(NC(C)=O)c32)cc1`: the IC50 in the experiment with KB [1] is 90 nM; in the experiment on TSGH 9201, 103 nM; in the experiment on MKN-45, 61 nM; on Tubulin, 1900 nM; in the experiment with HT-29 it was 51 nM; in the experiment with KB [3], 89 nM. In the experiment with NCI-H460, this compound returned an IC50 of 75 nM. The values for the inhibition at Tubulin (Homo sapiens) [2] and at Tubulin (Homo sapiens) [4] were 86% and 57%, respectively.
Take `COc1ccc(S(=O)(=O)N2CCc3cccc(NS(=O)(=O)c4ccccc4)c32)cc1`: the IC50 in the experiment with MKN-45 amounted to 562 nM; in the experiment on KB [3], 650 nM.
Consider `COc1ccc(C(=O)Nc2cccc3c2N(S(=O)(=O)c2ccc(OC)cc2)CC3)cc1`, for which the IC50 was found to be 1600 nM in the experiment on MKN-45 and 2600 nM with KB [3].
Regarding `COc1cc2c(c(OC)c1OC)-c1ccc(OC)c(=O)cc1[C@@H](NC(C)=O)CC2` [COLCHICINE], the IC50 in the experiment with KB [1] worked out at 117 nM; in the experiment on MKN-45, 15 nM; in the experiment with KB [3], 13.3 nM.
